In US10927111B2, “Inhibitors of RAF kinases” (Kinnate Biopharma Inc., priority 2019, dated 2021):
Like-named read-outs stand apart in the source and are kept apart here.

Biological target: human RAF1 (Homo sapiens (Human), UniProt P04049)
Test: Protein kinase assay (radiometric 33P-ATP, MEK1 (K97R) substrate)
Assay type: biochemical
Details: read-out: RAF-1 IC50
[1] = human MEK1 (K97R) substrate 3 micromolar, ATP 10 micromolar, 10-dose IC50 mode

Chain of human RAF1 (P04049 whole entry): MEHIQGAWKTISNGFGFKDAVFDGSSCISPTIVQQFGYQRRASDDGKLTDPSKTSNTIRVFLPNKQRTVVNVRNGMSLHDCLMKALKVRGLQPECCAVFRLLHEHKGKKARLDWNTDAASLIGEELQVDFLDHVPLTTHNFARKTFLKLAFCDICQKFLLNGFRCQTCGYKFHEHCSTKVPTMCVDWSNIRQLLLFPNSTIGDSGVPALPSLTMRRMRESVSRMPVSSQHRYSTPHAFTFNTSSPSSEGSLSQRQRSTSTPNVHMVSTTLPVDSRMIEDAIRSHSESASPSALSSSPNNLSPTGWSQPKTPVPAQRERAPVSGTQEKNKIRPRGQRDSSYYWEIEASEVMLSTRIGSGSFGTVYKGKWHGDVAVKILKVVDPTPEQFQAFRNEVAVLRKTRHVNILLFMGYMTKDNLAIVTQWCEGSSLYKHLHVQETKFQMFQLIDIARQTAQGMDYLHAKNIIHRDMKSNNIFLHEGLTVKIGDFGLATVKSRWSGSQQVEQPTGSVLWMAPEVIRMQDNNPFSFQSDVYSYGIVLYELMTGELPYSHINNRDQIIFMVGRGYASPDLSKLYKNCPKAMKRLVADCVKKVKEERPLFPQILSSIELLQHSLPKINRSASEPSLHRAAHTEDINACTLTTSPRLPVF

| Structure (SMILES) | IC50 | IC50 [1] |
| --- | --- | --- |
| [2H]C([2H])([2H])Nc1ncc2cc(-c3cc(NC(=O)c4ccnc(C(F)(F)F)c4)ccc3C)c(C([2H])([2H])[2H])nc2n1 [Example 75, N-(4-methyl-3-(7-(methyl-d3)-2-((methyl-d3)amino)pyrido[2,3-d]pyrimidin-6-yl)phenyl)-2-(trifluoromethyl)isonicotinamide] | ≤ 10 nM | – |
| CNc1ncc2cc(-c3cc(NC(=O)c4cc[n+]([O-])c(C(F)(F)F)c4)ccc3C)c(C)nc2n1 [Example 76, 4-([4-methyl-3-[7-methyl-2-(methylamino)pyrido[2,3-d]pyrimidin-6-yl]phenyl]carbamoyl)-2-(trifluoromethyl)pyridin-1-ium-1-olate] | – | ≤ 10 nM |
| CNc1ncc2cc(-c3cc(NC(=O)N4CC[C@@H](CC(F)(F)F)C4)ccc3C)c(C#N)nc2n1 [Example 77, (3S)—N-[3-[7-cyano-2-(methylamino)pyrido[2,3-d]pyrimidin-6-yl]-4-methylphenyl]-3-(2,2,2-trifluoroethyl)pyrrolidine-1-carboxamide] | – | ≤ 10 nM |
| CNc1ncc2cc(-c3cc(NC(=O)N4CC[C@@H](OC(F)(F)F)C4)ccc3C)c(C#N)nc2n1 [Example 78, (3R)—N-[3-[7-cyano-2-(methylamino)pyrido[2,3-d]pyrimidin-6-yl]-4-methylphenyl]-3-(trifluoromethoxy)pyrrolidine-1-carboxamide] | – | ≤ 10 nM |
| CNc1ncc2cc(-c3cc(NC(=O)N4CC[C@H](OC(F)(F)F)C4)ccc3C)c(C#N)nc2n1 [Example 79] | – | ≤ 10 nM |
